US20180327364A1, “MTOR INHIBITORS AND METHODS OF USE THEREOF” (Brandeis University, priority 2015, published 2018)

Experiments:
firefly luciferase = test: Luciferase assay in stably transduced luciferase HEK-293T cells; type: cell-based
Protocol: Firefly luciferase and firefly luciferase-eDHFR were cloned into pBABE-puro vector which was a gift from Hartmut Land & Jay Morgenstern & Bob Weinberg (Addgene plasmid #1764). pBABE-puro-luciferase was co-transfected with VSV-G into GP2-293 cells (Retro-X Universal Packaging System, Clonetech, Mountain View, Calif.) with TransIT-2020 (MirusBio) according to TransIT-2020's manufacture's protocol. After 48 h, viral supernatant was harvested, spun down, filtered with a […] syringe filter, and added to HEK-293T supplemented with 8 μg/mL polybrene. After 4 h of infection, the media was replaced with fresh media. 48 h later, media was replaced with media containing 3 μg/mL puromycin. Media was replaced with fresh media containing puromycin every 3-4 days. After 2 weeks of puromycin selection, the cells were grown out from single cell colonies and screened for luciferase expression.
(§1) Stably transduced luciferase HEK-293T cells were plated in 96-well plates 24 h prior to treatment with 100 μM of Cbz-B3A, amine-B3A, acetyl-B3A, and Cbz-acetyl. After 4 h, cells were harvested and measured with Luciferase Assay System with Reporter Lysis Buffer from Promega according to the manufacturer's protocol. Before the addition of luciferin, protein concentration was measured by removing 2 μl of lysate from each well and adding it to diluted Bio-Rad Protein Assay Dye Reagent Concentrate, and the absorbance was measured at OD595. The protein concentration was used to normalize luciferase signal. For translation assays, cells were pretreated for 15 min with 100 μg/mL cycloheximide or 6 μM bortezomib. For the recombinant luciferase assay, Quantilum Recombinant Luciferase (Promega) was diluted 1:250,000 in reporter lysis buffer with 1 mg/mL BSA then mixed 1:1 with 200 μM compound in the same buffer for a final dilution of 1:500,000 and 100 μM compound in 20 μL. This was incubated for 10 min at room temperature then measured with Luciferase Assay System with Reporter Lysis Buffer from Promega according to the manufacturer's protocol.

Rheb = Rheb level immunoblot in HEK-293T cells; type: cell-based; conditions: 10 μM, 4 h; p=0.04 vs DMSO
Protocol: (§2) Quantification of western blots was performed with ImageJ. Cells were lysed in RIPA buffer (1% NP-40, 1% NaDeoxycholate, 0.1% SDS, 10 mM TrisCl, 10 mM β-glycerophosphate, 10 mM Na pyrophosphate, 50 mM NaF, 200 μM Na vanadate, 1 mM EDTA, 500 μM EGTA, 1% benzonase, and supplemented with complete (Roche Diagnostics) protease inhibitors).

K562 cells [1] = test: CellTiter-Glo proliferation, K562; type: cell-based; conditions: Homo sapiens, 48 h
Protocol: (§3) To determine cellular growth, CellTiter-Glo luminescent cell viability assay (Promega) was used per the manufacturer's instruction. To determine cytotoxicity, LDH release was measured with the LDH Cytotoxicity Assay Kit (Pierce) according to the manufacture's protocol. For 4 h assays, 96 well plates were seeded at 75,000 cells/mL for BaF3/p210 cells or K562 cells. For HEK-293T cells, 10,000 cells/well were plated 24 h before treatment. Cells were treated for 4 h at 37° C. and […] was removed from every well and used in the LDH Cytotoxicity assay per the manufacturer's protocol. For 48 h assays, 7,500 cells/mL of BaF3/p210 or K562 cells were incubated with compound at 37° C. for 48 h (200 μL/well). For HEK-293T cells, 1,000 cells/well were plated 24 h prior to compound treatment. After treatment, 50 μL was removed from each well for the LDH assay for all cell lines and 100 μL of mixed cells were removed and used with the CellTiter-Glo kit for K562 and BaF3/p210 cells. For HEK-293T cells, wells were treated directed with the CellTiter-Glo kit. Cytotoxicity or viability was measured by luminosity and absorbance on a microplate reader.

[2] = target: T1, recombinant firefly luciferase (Photinus pyralis, UniProt P08659); test: Recombinant luciferase assay; type: biochemical; conditions: 100 μM compound, 10 min incubation
T1 construct: purchased Promega
T1 sequence (P08659 whole entry): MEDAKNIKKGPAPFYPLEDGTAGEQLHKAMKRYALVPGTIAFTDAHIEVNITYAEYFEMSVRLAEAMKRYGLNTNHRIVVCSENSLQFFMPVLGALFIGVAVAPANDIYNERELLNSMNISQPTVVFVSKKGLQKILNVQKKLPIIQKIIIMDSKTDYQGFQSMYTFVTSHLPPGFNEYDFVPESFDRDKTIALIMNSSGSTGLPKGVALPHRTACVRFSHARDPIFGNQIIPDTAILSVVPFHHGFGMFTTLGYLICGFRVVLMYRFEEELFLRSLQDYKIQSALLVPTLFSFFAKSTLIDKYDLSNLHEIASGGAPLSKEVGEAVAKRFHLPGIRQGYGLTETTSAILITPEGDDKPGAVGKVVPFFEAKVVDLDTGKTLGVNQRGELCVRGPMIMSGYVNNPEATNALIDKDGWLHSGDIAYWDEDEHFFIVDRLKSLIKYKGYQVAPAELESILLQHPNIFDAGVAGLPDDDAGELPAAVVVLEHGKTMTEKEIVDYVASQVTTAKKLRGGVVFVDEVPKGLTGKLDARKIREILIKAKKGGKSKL
Protocol: as §1

LC3 A/B II = LC3 A/B II immunoblot (autophagy) in HEK-293T cells; type: cell-based; conditions: Cbz-B3A 10 μM, rapamycin 20 nM, 4 h
Protocol: as §2

[3] = test system: p70s6k phosphorylation (mTORC1); test: p70s6k phosphorylation immunoblot in HEK-293T cells; type: cell-based
Protocol: as §2

BaF3/p210 cells = test: CellTiter-Glo proliferation, BaF3/p210; type: cell-based; conditions: Mus musculus, 48 h
Protocol: as §3

K562 cells [4] = test: NCI-60 DTP Human Tumor Cell Line Screen, K562; type: cell-based; conditions: 48 h, read-out: inhibition of proliferation, K562
Protocol: Screen was conducted as previously described, performed at Developmental Therapeutics Program NCI/NIH.

HEK-293T cells = test: CellTiter-Glo proliferation, HEK-293T; type: cell-based; conditions: Homo sapiens, 48 h
Protocol: as §3

**Q.** How did the “firefly luciferase signal, co-treatment with bortezomib compared to bortezomib alone” value (firefly luciferase; 6 μM bortezomib pretreatment 15 min, then 100 μM Cbz-B3A 4 h) turn out when CC(C)(C)OC(=O)/N=C(\NCCC[C@H](NC(=O)OC(C)(C)C)C(=O)NCCCCCCNC(=O)OCc1ccccc1)NC(=O)OC(C)(C)C [Cbz-B3A] was run?
**A.** Its value is “decreased”.

**Q.** What about the “luciferase activity, co-treatment with cycloheximide” value (firefly luciferase; 100 μg/mL cycloheximide pretreatment 15 min, then 100 μM Cbz-B3A 4 h) of the same molecule?
**A.** The value was “no further decrease in luciferase activity”.

**Q.** And the “wild type luciferase signal” value (firefly luciferase; HEK-293T cells expressing HA-luciferase, 100 μM, 4 h)?
**A.** The value was “decreased the wild type luciferase signal”.

**Q.** What about the “amount of Rheb” value (Rheb) of the same molecule?
**A.** Its value is “increased the amount of Rheb”.

**Q.** And the inhibition at 10 µM (K562 cells [1])?
**A.** The inhibition at 10 µM was 52%.

**Q.** And the “recombinant firefly luciferase signal (enzymatic activity)” value [2]?
**A.** Its value is “no reduction of signal”.

**Q.** What about the “LC3 A/B II (autophagy)” value (LC3 A/B II) of the same molecule?
**A.** Its value is “increased LC3 A/B II to equivalent levels as rapamycin”.

**Q.** What about the “p70s6k Ser371 phosphorylation” value ([3]; 10 μM, 4 h) of the same molecule?
**A.** Its value is “did not inhibit phosphorylation”.

**Q.** And the EC50 ([3]; Homo sapiens, HEK-293T, 4 h, read-out: EC50 of inhibition of p70s6k Thr389 phosphorylation)?
**A.** The EC50 was ~5 µM.

**Q.** And the “phosphorylation retained at Thr389 of p70s6k” value ([3]; at maximum inhibition)?
**A.** Its value is “approximately 30%”.

**Q.** And the inhibition at 10 µM (BaF3/p210 cells)?
**A.** Its inhibition at 10 µM is 68%.

**Q.** What about the inhibition at 10 µM (K562 cells [4]) of the same molecule?
**A.** The inhibition at 10 µM was 39%.

**Q.** What about the inhibition at 10 µM (HEK-293T cells) of the same molecule?
**A.** The inhibition at 10 µM was 64%.
